This test concerns the target T1, crosslinked smooth muscle actomyosin (chicken gizzard smooth muscle myosin subfragment-1 crosslinked to cardiac or skeletal actin) (Gallus gallus, UniProt P10587).
T1 construct: chicken gizzard smooth muscle myosin subfragment-1; from tissue; host or cells: chicken gizzard
As to the kind of experiment: Lead optimization pyruvate kinase/horseradish peroxidase/pyruvate oxidase-coupled ATPase assay (compound dose response). The following applies: read-out: IC50 Arithmetic Mean. The format is biochemical. The essentials: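 The ATPase used chicken gizzard smooth muscle myosin S1 chemically crosslinked to cardiac or skeletal actin, titrated to a set hydrolysis rate. It was coupled via pyruvate kinase/pyruvate oxidase/HRP in 12 mM K-PIPES pH 7.00 (22 °C) with 0.15 mM ATP, 2 mM MgCl2, 100 mM KCl and 0.1 mM Amplex Red. Fluorescence was read at ex 480/em 615 nm, and IC50 came from a 4-parameter fit.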

One may read the IC50 as the concentration that inhibits the measured activity by half.

With `CCc1ccc(NC(=O)OCC2(C(=O)NCc3ccccn3)CCN(C(=O)CN)CC2)cc1` [({1-(2-aminoacetyl)-4-[N-(2-pyridylmethyl)carbamoyl](4-piperidyl)}methoxy)-N-(4-ethylphenyl)carboxamide], the IC50 was determined as 7.22 µM. The same measure for `CCc1ccc(NC(=O)OCC2(C(=O)NCc3ncc[nH]3)CCN(C(=O)CN)CC2)cc1` [({1-(2-aminoacetyl)-4-[N-(imidazol-2-ylmethyl)carbamoyl](4-piperidyl)}methoxy)-N-(4-ethylphenyl)carboxamide]: 18.5 µM. The same measure for `CCc1ccc(NC(=O)OCC2(C(=O)NCc3cccc4ccccc34)CCN(C(=O)CN)CC2)cc1` [({1-(2-aminoacetyl)-4-[N-(naphthylmethyl)carbamoyl](4-piperidyl)}methoxy)-N-(4-ethylphenyl)carboxamide]: 0.439 µM; for `CCc1ccc(NC(=O)OCC2(C(=O)NCc3ccccc3Cl)CCN(C(=O)NCCN)CC2)cc1` [N-(2-aminoethyl)(4-{N-[(2-chlorophenyl)methyl]carbamoyl}-4-{[N-(4-ethylphenyl)carbamoyloxy]methyl}piperidyl)carboxamide]: 0.159 µM; for `CCc1ccc(NC(=O)OCCN(CCN)C(=O)NCc2ccccc2Cl)cc1` [N-(2-aminoethyl){[(2-chlorophenyl)methyl]amino}-N-{2-[N-(4-ethylphenyl)carbamoyloxy]ethyl}carboxamide]: 2.83 µM. `CCc1ccc(NC(=O)OCCN(CCCN)C(=O)NCc2ccccc2Cl)cc1` [N-(3-aminopropyl){[(2-chlorophenyl)methyl]amino}-N-{2-[N-(4-ethylphenyl)carbamoyloxy]ethyl}carboxamide]: the IC50 turned out to be 2.54 µM.

`CCc1ccc(NC(=O)OCCN(CCCCCN)C(=O)NCc2ccccc2Cl)cc1` [N-(5-aminopentyl){[(2-chlorophenyl)methyl]amino}-N-{2-[N-(4-ethylphenyl)carbamoyloxy]ethyl}carboxamide]: the IC50 came to 0.487 µM. With `CCc1ccc(NC(=O)OC[C@@H]2C[C@@H](NC(=O)CN)CN2C(=O)NCc2ccccc2Cl)cc1` [N-((5S,3R)-1-{N-[(2-chlorophenyl)methyl]carbamoyl}-5-{[N-(4-ethylphenyl)carbamoyloxy]methyl}pyrrolidin-3-yl)-2-aminoacetamide] the figure was 0.234 µM. With `CCc1ccc(NC(=O)OC[C@@H]2C[C@@H](NC(C)=O)CN2C(=O)NCc2ccccc2Cl)cc1` [N-((5S,3R)-1-{N-[(2-chlorophenyl)methyl]carbamoyl}-5-{[N-(4-ethylphenyl)carbamoyloxy]methyl}pyrrolidin-3-yl)acetamide] the figure was 1.86 µM; with `CCc1ccc(NC(=O)NCCN(C)C(=O)NCc2ccccc2Cl)cc1` [N-[2-({[(2-chlorophenyl)methyl]amino}-N-methylcarbonylamino)ethyl][(4-ethylphenyl)amino]carboxamide], 6.75 µM; with `CCc1ccc(CC(=O)NCC2(C(=O)NCc3ccccc3Cl)CCN(C(=O)CN)CC2)cc1` [N-[(1-(2-aminoacetyl)-4-{N-[(2-chlorophenyl)methyl]carbamoyl}(4-piperidyl))methyl]-2-(4-ethylphenyl)acetamide], 14.9 µM. With `CCc1ccc(NC(=O)N(CCN)CC2(C(=O)NCc3ccccc3Cl)CCN(C(=O)CN)CC2)cc1` [N-[(1-(2-aminoacetyl)-4-{N-[(2-chlorophenyl)methyl]carbamoyl}(4-piperidyl))methyl]-N-(2-aminoethyl)[(4-ethylphenyl)amino]carboxamide] the figure was 16.4 µM; with `CCc1ccc(NC(=O)N(CCCOC)CC2(C(=O)NCc3ccccc3Cl)CCN(C(=O)CN)CC2)cc1` [N-[(1-(2-aminoacetyl)-4-{N-[(2-chlorophenyl)methyl]carbamoyl}(4-piperidyl))methyl][(4-ethylphenyl)amino]-N-(3-methoxypropyl)carboxamide], 12.4 µM; with `CCc1ccc(NC(=O)OCC2(C(=O)NCc3ccccc3Cl)CCN(C(=O)[C@@H](CO)NC(=O)OC(C)(C)C)CC2)cc1` [N-[(1R)-2-(4-{N-[(2-chlorophenyl)methyl]carbamoyl}-4-{[N-(4-ethylphenyl)carbamoyloxy]methyl}piperidyl)-1-(hydroxymethyl)-2-oxoethyl](tert-butoxy)carboxamide], 3.5 µM.

Regarding `CCc1ccc(NC(=O)OCC2(C(=O)NCc3ccccc3Cl)CCN(C(=O)[C@@H](C)NC(=O)OC(C)(C)C)CC2)cc1` [N-[(1R)-2-(4-{N-[(2-chlorophenyl)methyl]carbamoyl}-4-{[N-(4-ethylphenyl)carbamoyloxy]methyl}piperidyl)-1-methyl-2-oxoethyl](tert-butoxy)carboxamide], the IC50 is 12 µM. With `CCc1ccc(NC(=O)OCC2(C(=O)NCc3ccccc3Cl)CCCN(C(=O)[C@H](CO)NC(=O)OC(C)(C)C)C2)cc1` (stereo partly drawn) [N-[(1S)-2-(3-{N-[(2-chlorophenyl)methyl]carbamoyl}-3-{[N-(4-ethylphenyl)carbamoyloxy]methyl}piperidyl)-1-(hydroxymethyl)-2-oxoethyl](tert-butoxy)carboxamide] the figure was 9.09 µM. The same measure for `CCc1ccc(NC(=O)OCC2(C(=O)NCc3ccccc3Cl)CCN(C(=O)[C@H](CO)NC(=O)OC(C)(C)C)CC2)cc1` [N-[(1S)-2-(4-{N-[(2-chlorophenyl)methyl]carbamoyl}-4-{[N-(4-ethylphenyl)carbamoyloxy]methyl}piperidyl)-1-(hydroxymethyl)-2-oxoethyl](tert-butoxy)carboxamide]: 0.416 µM; for `CCc1ccc(NC(=O)OCC2(C(=O)NCc3ccccc3Cl)CCN(C(=O)[C@H](C)NC(=O)OC(C)(C)C)CC2)cc1` [N-[(1S)-2-(4-{N-[(2-chlorophenyl)methyl]carbamoyl}-4-{[N-(4-ethylphenyl)carbamoyloxy]methyl}piperidyl)-1-methyl-2-oxoethyl](tert-butoxy)carboxamide]: 1.51 µM; for `CCc1ccc(NC(=O)OCC2(C(=O)NCc3ccccc3Cl)CCN(C(=O)C3CCCCC3)CC2)cc1` [N-[(2-chlorophenyl)methyl](1-(cyclohexylcarbonyl)-4-{[N-(4-ethylphenyl)carbamoyloxy]methyl}(4-piperidyl))carboxamide]: 2.77 µM. The same measure for `CCc1ccc(NC(=O)OCC2(C(=O)NCc3ccccc3Cl)CCN(C(=O)C3CC3)CC2)cc1` [N-[(2-chlorophenyl)methyl](1-(cyclopropylcarbonyl)-4-{[N-(4-ethylphenyl)carbamoyloxy]methyl}(4-piperidyl))carboxamide]: 0.641 µM; for `CCc1ccc(NC(=O)OCC2(C(=O)NCc3ccccc3Cl)CCN(CC)CC2)cc1` [N-[(2-chlorophenyl)methyl](1-ethyl-4-{[N-(4-ethylphenyl)carbamoyloxy]methyl}(4-piperidyl))carboxamide]: 6.28 µM. Turning to `CCc1ccc(NC(=O)OCC2(C(=O)NCc3ccccc3Cl)CC(O)C(O)C2)cc1` (centres unmarked) [N-[(2-chlorophenyl)methyl](1-{[N-(4-ethylphenyl)carbamoyloxy]methyl}-3,4-dihydroxycyclopentyl)carboxamide], the IC50 came to 5.51 µM. The same measure for `CCc1ccc(NC(=O)OCC2(C(=O)NCc3ccccc3Cl)CC=CC2)cc1` [N-[(2-chlorophenyl)methyl](1-{[N-(4-ethylphenyl)carbamoyloxy]methyl}cyclopent-3-enyl)carboxamide]: 1.36 µM.

(Values after patent US8071625B2, “Certain chemical entities, compositions, and methods” (Cytokinetics, Inc., priority 2006, dated 2011).)
